Here are results for five compounds from paper PMC9479156 (Frontiers in Pharmacology, 2022).

In experiment [1] the test system is A549 human lung carcinoma. In words: MTT cytotoxicity assay A549. It is filed as cell-based. Particulars: for IC50: Homo sapiens, A549, MTT, 72 h, ± SD, read-out: IC50 A549. As to the method: (§1) Proliferative and non-proliferative mammalian cell lines: human liver and lung cancer cell lines HepG2 and A549, and immortalized normal liver LO2 and lung BEAS-2B cells were purchased from ATCC (Manassas, VA, United States). Cells were cultured in RPMI-1640 medium supplemented with 10% fetal bovine serum and antibiotics penicillin (50 U/mL) and streptomycin (50 μg/ml; Invitrogen, United Kingdom). All cells were incubated at 37°C in a 5% humidified CO2 incubator.
(§2) All test compounds were dissolved in DMSO at a final concentration of 50 mM and stored at −20°C before use. Cytotoxicity was assessed with A549, HepG2, BEAS-2B and LO2 cells. The MTT assay with 3-(4,5-dimethylthiazole-2yl)-2,5-diphenyltetrazolium bromide (5 mg/ml) was performed as previously described ([Ng et al., 2022]). Briefly, 4 × 10^3 cells per well were seeded in 96-well plates before drug treatment. After overnight cell culture, the cells were exposed to different concentrations of selected compounds (0.19–100 μM) for 72 h. Cells without drug treatment were used as control. Next, 10 μl of the MTT solution was added to each well and incubated at 37°C for another 4 h. Solubilization buffer (100 μl) was then added (10 mM HCl in a solution of 10% of SDS) and incubated overnight. The absorbance A at 570 nm was measured on the next day. The percentage of cell viability was calculated using the following formula: Cell viability (%) = Atreated/Acontrol × 100. Dose response curves for all assays are given in the Supplementary Figures S3–S6.
(§3) Cytotoxicity was assessed for each of artemisinin, DHA and artemether, and the amino-artemisinins artemiside and artemisone, and celastrol against A549 human lung carcinoma, BEAS-2B non-tumorigenic human bronchial epithelium, HepG2 liver hepatocellular carcinoma and LO2 human normal hepatocytes using the MTT assay ([Ng et al., 2022]). Data are presented in Table 4, and dose response curves are given in the Supplementary Figures S3–S6.
On the technique in general: Tetrazolium assays rely on reduction of a dye to a coloured formazan, in cell work by metabolically active cells.

Experiment [2] deals with BEAS-2B non-tumorigenic human bronchial epithelium. In words: MTT cytotoxicity assay BEAS-2B. The experiment is classed as cell-based. Particulars: MTT, 72 h, ± SD, read-out: IC50 BEAS-2B. Here is the method:
as §1, §2, §3

For experiment [3], the system named is HepG2 liver hepatocellular carcinoma. Put plainly: MTT cytotoxicity assay HepG2. It is filed as cell-based, human. Particulars: for IC50: Homo sapiens, HepG2, MTT, 72 h, ± SD, read-out: IC50 HepG2; for SI, selectivity index IC50 normal cell line/IC50 tumour cell line: LO2/HepG2. Here is the method:
as §1, §2, §3

Experiment [4] deals with LO2 human normal hepatocytes. In words: MTT cytotoxicity assay LO2. The experiment is classed as cell-based. Particulars: Hepatocyte, MTT, 72 h, ± SD, read-out: IC50 LO2. Here is the method: as §1, §2, §3
Experiment [5] concerns asexual blood stage P. falciparum NF54 (drug sensitive). Also on record: method as in Coertzen et al., 2018; Wong et al., 2019. Particulars: SYBR Green I, mean ± SEM, ref Coertzen et al., 2018, Wong et al., 2019; cited from earlier work.
Experiment [6] deals with asexual blood stage P. falciparum K1 (multidrug resistant). Particulars: ref Coertzen et al., 2018, Wong et al., 2019, cited from earlier work; for IC50: asexual blood stage, SYBR Green I, mean ± SEM.
In experiment [7] the test system is asexual blood stage P. falciparum W2 (multidrug resistant). Also noted: method as in Coertzen et al., 2018; Wong et al., 2019. Particulars: ref Coertzen et al., 2018, Wong et al., 2019, cited from earlier work; for IC50: asexual blood stage, SYBR Green I, mean ± SEM.
The subject of experiment [8] is immature stage II-III P. falciparum NF54 gametocytes. Also on record: method as in Coertzen et al., 2018, Wong et al., 2019. Particulars: ref Coertzen et al., 2018, Wong et al., 2019, cited from earlier work; for IC50: NF54 gametocytes, luciferase, 48 h, mean ± SEM, read-out: Immature stage II-III (luc 48 h) IC50; for Fold change preference ratio EG to LG: immature vs late stage gametocytes.

Experiment [9] relates to late stage IV-V P. falciparum NF54 gametocytes. Also noted: method as in Coertzen et al., 2018, Wong et al., 2019. Particulars: ref Coertzen et al., 2018, Wong et al., 2019, cited from earlier work; for IC50: NF54 gametocytes, luciferase, 72 h, mean ± SEM, read-out: Late stage IV-V (luc 72 h) IC50; for Fold change preference ratio LG to EG: late vs immature stage gametocytes.

For experiment [10], the system named is HepG2 liver hepatocellular carcinoma. Put plainly: Cytotoxicity drug combination (isobole) assay HepG2. It is filed as cell-based, human. As to the method: (§4) For the drug combination inhibitory assays, six drug preparations, of which four comprised combinations of either artemiside or artemisone with celastrol in a fixed ratio of 80:20, 60:40, 40:60, and 20:80 were prepared and screened against HepG2 liver hepatocellular carcinoma and LO2 human normal hepatocytes respectively. Two of these six preparations employed each of artemiside, artemisone or celastrol alone at a concentration approximately 5–7 times higher than the IC50 of the individual drug as presented in Table 4. […] Thus, six combinations for artemiside (µM) and celastrol (µM) prepared were 500:0, 400:4, 300:8, 200:12, 100:16, and 0:20, respectively.
(§5) As above for the malaria combination assays, a mean ΣFIC<1.0 represents a synergistic interaction, >1.3 represents an antagonistic interaction and ΣFIC = 1 represents an indifferent or additive interaction. Additivity, synergism and antagonism were also be established from the linear plots constructed from the FIC values of each of the drugs. A concave hyperbolic plot indicates synergism, a convex hyperbolic plot indicates an antagonistic interaction, and a straight line indicates an additive interaction. Isobole analysis of the combinations of each of artemiside and artemisone in combination with celastrol was performed against HepG2 and LO2 cells respectively. In Figure 5 is presented the isoboles for each drug combination.
(§6) Next, combinations of each of artemiside and artemisone with celastrol were examined, according to the method used to establish additivity/synergism described above. […] Against the normal hepatocyte LO2 cell line, whilst the interaction of artemisone with celastrol was synergistic, that of artemiside was additive. Synergism and additivity were also evident from the linear plots determined from the FIC values of each of the drugs (Table 5 and Figure 6). Thus, synergism is confirmed for combinations of the amino-artemisinins with celastrol against the HepG2 carcinoma cell line, and for artemisone-celastrol against human normal hepatocyte LO2.

In experiment [11] the test system is LO2 human normal hepatocytes. In words: Cytotoxicity drug combination (isobole) assay LO2. The experiment is classed as cell-based. As to the method: as §4, §5, §6

Broadly, the IC50 is the point on the concentration scale where inhibition reaches its midpoint. As for `CO[C@H]1O[C@@H]2O[C@@]3(C)CC[C@H]4[C@H](C)CC[C@@H]([C@H]1C)[C@@]24OO3` [Artemether, artemether], the IC50 in [1] is greater than 100000 nM; in experiment [2], greater than 100000 nM; in experiment [3], 1020 ± 200 nM; in experiment [4], greater than 100000 nM; in experiment [5] it was 1.86 ± 0.17 nM; in experiment [6], 9 ± 2 nM. In addition, the half-maximal inhibitory concentration (IC50) in experiment [7] is 7 ± 1 nM; in [8] it was 37.7 ± 2 nM; in [9] it was 136 ± 85.9 nM. Besides, the “SI, selectivity index IC50 normal cell line/IC50 tumour cell line” value in [3] is greater than 98. In experiment [6], the “RI (resistance index) = IC50 K1/IC50 NF54” value is on record as 4.8. Further, the “RI = IC50 W2/IC50 NF54” value in experiment [7] was 3.8. In addition, the “Fold change preference ratio EG to LG” value in experiment [8] was 3.6. Moreover, the “Fold change preference ratio LG to EG” value in experiment [9] was 0.28.
Turning to `C[C@@H]1CC[C@H]2[C@@H](C)C(O)O[C@@H]3O[C@@]4(C)CC[C@@H]1[C@]32OO4` (stereo partly drawn) [DHA], the half-inhibitory concentration (IC50) in experiment [1] was 62600 ± 3400 nM; in experiment [2] it was 21200 ± 1400 nM; in experiment [3], greater than 100000 nM; in experiment [4] it was 30700 ± 2200 nM; in experiment [5], 2.51 ± 0.19 nM; in experiment [6], 1.51 ± 0.33 nM. The IC50 in experiment [7] is 1.74 ± 0.22 nM; in experiment [8], 43 ± 3.9 nM; in [9], 33.7 ± 1.98 nM. The “RI (resistance index) = IC50 K1/IC50 NF54” value in experiment [6] is reported as 0.6. The “RI = IC50 W2/IC50 NF54” value in experiment [7] is listed as 0.7. Moreover, the “Fold change preference ratio EG to LG” value in experiment [8] is recorded as 0.78. Also, the “Fold change preference ratio LG to EG” value in experiment [9] is on record as 1.3.
For `C[C@H]1[C@H](N2CCSCC2)O[C@@H]2O[C@@]3(C)CC[C@H]4[C@H](C)CC[C@@H]1[C@@]24OO3` [Artemiside, artemiside], the figures for the “SI, selectivity index IC50 normal cell line/IC50 tumour cell line” value in experiment [1] (BEAS-2B/A549), in experiment [3] and in [3] (listed as artemiside) were less than 0.3, greater than 183 and greater than 170, respectively. Further, the concentration for half-maximal inhibition (IC50) in experiment [1] was greater than 100000 nM; in experiment [2] it was 32100 ± 2700 nM; in experiment [3], 550 ± 20 nM; in experiment [4] it was greater than 100000 nM; in [5] it was 1.11 ± 0.17 nM; in experiment [6], 1.6 ± 0.4 nM. The half-inhibitory concentration (IC50) in experiment [7] is 1.75 ± 0.27 nM; in [8], 16.4 ± 1 nM; in [9], 1.5 ± 0.5 nM. For the same compound, the FIC in experiment [10] (artemiside:celastrol drug ratio 20:80, HepG2) is given as 0.16; in [10] (artemiside:celastrol drug ratio 40:60, HepG2) it was 0.42; in [10] (artemiside:celastrol drug ratio 60:40, HepG2), 0.4; in [10] (artemiside:celastrol drug ratio 80:20, HepG2), 0.57; in [11] (artemiside:celastrol drug ratio 20:80, LO2), 0.09; in experiment [11] (artemiside:celastrol drug ratio 40:60, LO2) it was 0.33. The FIC in experiment [11] (artemiside:celastrol drug ratio 60:40, LO2) stood at 0.45; in [11] (artemiside:celastrol drug ratio 80:20, LO2) it was 0.59. Moreover, the “RI (resistance index) = IC50 K1/IC50 NF54” value in experiment [6] was 1.47. In addition, the “RI = IC50 W2/IC50 NF54” value in experiment [7] is 1.58. Also, the “Fold change preference ratio EG to LG” value in experiment [8] is given as 0.09. The “Fold change preference ratio LG to EG” value in experiment [9] is 10.9.
As to `C[C@H]1[C@H](OC(=O)CCC(=O)O)O[C@@H]2O[C@@]3(C)CC[C@H]4[C@H](C)CC[C@@H]1[C@@]24OO3` [Artesunate, artesunate], the IC50 in experiment [5] was 3 ± 0.29 nM; in [6], 4 ± 1 nM; in experiment [7], 2.4 ± 0.4 nM; in [8] it was 62.8 ± 3 nM; in experiment [9] it was 259 ± 80 nM.
`C[C@@H]1CC[C@H]2[C@@H](C)C(=O)O[C@@H]3O[C@@]4(C)CC[C@@H]1[C@]32OO4` [Artemisinin, artemisinin, reference compound]: the half-inhibitory concentration (IC50) in experiment [1], in [2], in experiment [3] and in experiment [4] was greater than 100000 nM throughout.
